Each structure is given as a SMILES string. Where “and” joins values, the source holds several entries; their conditions need not be identical. Equal values may be shown once.

6 compounds from patent publication US8343996B2, “Azaquinolinone derivatives and uses thereof” (AstraZeneca AB, priority 2008, dated 2013) can be followed below.

The subject of the test is farnesyl transferase (FTase). Briefly: Cytosolic Ras assay for measurement of farnesyl transferase activity (RAS Cell Assay). It is filed as cell-based, African green monkey. Particulars: COS-7 cells, 24 hr treatment in 0.2% DMSO; cytosolic Ras by Western blot, Ras/actin ratio. From the text: Ras is a small GTP binding protein whose farnesylation and consequent membrane association can be reduced by inhibition of farnesyl transferase (Appels et al., Oncologist 10:565-578, 2005; Basso et al., J. Lipid Res. 47:15-31, 2006; Tamanoi, Trends Biochem. Sci. 18:349-353, 1993; each of which is incorporated herein by reference). […] Treatment with a compound of the invention reduces the farnesylation and membrane association of Ras, leading to accumulation of Ras in the cytosol of the cells. An assay was developed to monitor FTase activity, based on the amount of Ras present in the cytosolic fraction of COS-7 cells after FTI treatment. On day 0, COS-7 cells were passaged into 6-well plates at a density of 4×10^5 cells/well. Beginning on day 1, cells were treated with a compound of the invention in 0.2% DMSO for 24 hr. On day 2, cells were lysed by passage through a 25 gauge needle 10 times in 100 μl Buffer 1 (50 mM Tris, 140 mM NaCl, 2 mM EDTA, protease inhibitor cocktail, pH 7.4) and lysates were centrifuged at 16,000 g for 30 min to isolate the cytosolic fraction (supernatant). The cytosolic fraction was analyzed by Western blot using anti-Ras antibody and anti-actin antibody for loading control. Results were quantified based on densitometric analysis of Ras signal normalized to actin signal (Ras/actin ratio). Treatment with a compound of the invention increases the amount of Ras in the cytosolic fraction in a dose-dependent manner. Using this method, compounds of the invention were analyzed for their ability to inhibit FTase activity, in that an increase in the Ras/actin ratio indicates inhibition of FTase.
Turning to `C#Cc1cccc(-c2cc(=O)n(C)c3ncc([C@@](O)(c4ccc(Cl)cc4)c4cncn4C)cc23)c1` [Compound 4a], the half-maximal inhibitory concentration (IC50) was 300 nM.

As to `C#Cc1cccc(-c2cc(=O)n(C)c3ncc([C@](O)(c4ccc(Cl)cc4)c4cncn4C)cc23)c1` [Compound 4b], the half-inhibitory concentration (IC50) is 0.57 nM and 0.54 nM. In the case of `COc1cccc(-c2cc(=O)n(C)c3ncc([C@](N)(c4ccc(Cl)cc4)c4cncn4C)cc23)c1` [Compound 5a, 6-(amino(4-chlorophenyl)(1-methyl-1H-imidazol-5-yl)methyl)-4-(3-methoxyphenyl)-1-methyl-1,8-naphthyridin-2(1H)-one], the IC50 is 3.9 nM and 2 nM.

With `COc1cccc(-c2cc(=O)n(C)c3ncc([C@@](N)(c4ccc(Cl)cc4)c4cncn4C)cc23)c1` [Compound 5b, 6-(amino(4-chlorophenyl)(1-methyl-1H-imidazol-5-yl)methyl)-4-(3-methoxyphenyl)-1-methyl-1,8-naphthyridin-2(1H)-one], the IC50 is 300 nM. Regarding `COc1cccc(-c2cc(=O)n(C)c3ncc([C@](O)(c4ccc(Cl)cc4)c4cncn4C)cc23)c1` [Compound 6a, 6-((4-chlorophenyl)(hydroxy)(1-methyl-1H-imidazol-5-yl)methyl)-4-(3-methoxyphenyl)-1-methyl-1,8-naphthyridin-2(1H)-one], the IC50 was 2.3 nM and 4.2 nM. `COc1cccc(-c2cc(=O)n(C)c3ncc([C@@](O)(c4ccc(Cl)cc4)c4cncn4C)cc23)c1` [Compound 6b, 6-((4-chlorophenyl)(hydroxy)(1-methyl-1H-imidazol-5-yl)methyl)-4-(3-methoxyphenyl)-1-methyl-1,8-naphthyridin-2(1H)-one]: the concentration for half-maximal inhibition (IC50) was found to be 190 nM.

In general, IC50 refers to the point on the concentration scale where inhibition reaches its midpoint.
